Assay results published in ChEMBL document CHEMBL1140397, “Discovery of 4-aryl-4H-chromenes as a new series of apoptosis inducers using a cell- and caspase-based high-throughput screening assay. 2. Structure-activity relationships of the 7- and 5-, 6-, 8-positions” (Bioorg Med Chem Lett, 2005).

Legend:
Assay type in all cases: functional
[1] = tested on: NCI-H1299; assay: Effective concentration against human non-small cell lung cancer H1299 cells inducing apoptosis, activity was measured by cell and caspase-based HTS assay
[2] = tested on: T47D; assay: Effective concentration against human breast cancer T47D cell line apoptosis inducing activity was measured by using cell and caspase-based HTS assay
[3] = tested on: NCI-H1299; assay: Effective concentration against human non-small cell lung cancer H1299 cells inducing apoptosis activity was measured by using cell and caspase-based HTS assay
[4] = tested on: T47D; assay: Effective concentration against human breast cancer T47D cell line inducing apoptosis activity was measured by cell and caspase-based HTS assay
[5] = tested on: T47D; assay: Growth inhibitory activity against human breast cancer T47D cell line
[6] = tested on: NCI-H1299; assay: Growth inhibitory activity against human non-small cell lung cancer H1299 cells
[7] = tested on: T47D; assay: Ratio of inhibition of cell proliferation activity to that of caspase activation inducing apoptosis activity in human breast cancer T47D cell line
[8] = molecular target: Tubulin beta-4B chain (Homo sapiens, UniProt P68371); assay: Inhibitory activity against tubulin using tubulin polymerization assay
Chain of Tubulin beta-4B chain (P68371 whole entry): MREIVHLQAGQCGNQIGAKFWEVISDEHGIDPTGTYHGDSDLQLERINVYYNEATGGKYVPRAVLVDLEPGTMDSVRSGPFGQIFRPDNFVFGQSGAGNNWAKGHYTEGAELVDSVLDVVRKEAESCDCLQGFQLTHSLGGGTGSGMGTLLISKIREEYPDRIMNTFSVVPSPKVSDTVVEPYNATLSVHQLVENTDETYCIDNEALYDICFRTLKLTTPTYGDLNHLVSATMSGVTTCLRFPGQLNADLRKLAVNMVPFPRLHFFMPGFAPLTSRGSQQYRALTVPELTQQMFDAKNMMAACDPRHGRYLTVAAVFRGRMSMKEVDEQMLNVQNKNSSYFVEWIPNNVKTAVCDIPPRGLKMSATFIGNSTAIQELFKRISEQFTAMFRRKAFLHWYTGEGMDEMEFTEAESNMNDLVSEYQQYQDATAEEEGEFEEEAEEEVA

| SMILES | EC50 [1] | EC50 [2] | EC50 [3] | further results |
| --- | --- | --- | --- | --- |
| CCOc1ccc2c(c1)OC(N)=C(C#N)C2c1cc(Br)c(OC)c(OC)c1 (stereo not given) | 92 nM | 64 nM |  |  |
| CCNc1cc2c(cc1C)C(c1cc(OC)c3c(c1)OCO3)C(C#N)=C(N)O2 (stereo not given) |  |  | 1400 nM | EC50 [4]: 1100 nM |
| COc1cc(C2C(C#N)=C(N)Oc3cc(Br)ccc32)cc(Br)c1OC (stereo not given) | 280 nM | 140 nM |  |  |
| CCCCNc1ccc2c(c1)OC(N)=C(C#N)C2c1cc(OC)c(OC)c(OC)c1 (stereo not given) | 110 nM | 49 nM |  |  |
| COc1cc(C2C(C#N)=C(N)Oc3cc(N)ccc32)cc2c1OCO2 (stereo not given) |  |  | 1700 nM | GI50 [5]: 2400 nM; EC50 [4]: 1200 nM; GI50 ([6]; Homo sapiens, NCI-H1299): 1200 nM; GI50/EC50 [7]: 2.1 |
| COc1cc2c(cc1OC)C(c1cc(OC)c3c(c1)OCO3)C(C#N)=C(N)O2 (stereo not given) |  |  | > 10000 nM | GI50 [5]: > 10000 nM; EC50 [4]: > 10000 nM; GI50 ([6]; Homo sapiens, NCI-H1299): > 10000 nM; GI50/EC50 [7]: 1 |
| CCCCNc1ccc2c(c1)OC(N)=C(C#N)C2c1cccc(OC)c1 (stereo not given) | 190 nM | 110 nM |  |  |
| CCN(CC)c1ccc2c(c1)OC(N)=C(C#N)C2c1cc(OC)c2c(c1)OCO2 (stereo not given) |  |  | 530 nM | EC50 [4]: 480 nM |
| CCNc1ccc2c(c1)OC(N)=C(C#N)C2c1cc(Br)c(OC)c(OC)c1 (stereo not given) |  | 14 nM | 27 nM |  |
| COc1cc(C2C(C#N)=C(N)Oc3cc4c(cc32)OCO4)cc2c1OCO2 (stereo not given) |  | 210 nM | 270 nM |  |
| COc1cc(C2C(C#N)=C(N)Oc3c2ccc(C)c3C)cc(Br)c1OC (stereo not given) | 87 nM | 42 nM |  |  |
| COc1ccc2c(c1)OC(N)=C(C#N)C2c1cc(OC)c(OC)c(OC)c1 (stereo not given) | 57 nM | 26 nM |  |  |
| COc1cc(C2C(C#N)=C(N)Oc3c2ccc(N)c3N)cc(Br)c1OC (stereo not given) | 81 nM | 34 nM |  | GI50 [5]: 150 nM; GI50 ([6]; Homo sapiens, NCI-H1299): 31 nM; GI50/EC50 [7]: 4.4 |
| COc1cncc(C2C(C#N)=C(N)Oc3cc(OC)ccc32)c1 (stereo not given) | 100 nM | 47 nM |  | GI50 [5]: 65 nM; GI50 ([6]; Homo sapiens, NCI-H1299): 72 nM; GI50/EC50 [7]: 1.4 |
| COc1cc(C2C(C#N)=C(N)Oc3cc(Nc4ccccc4)ccc32)cc2c1OCO2 (stereo not given) |  |  | > 10000 nM | EC50 [4]: > 10000 nM |
| COc1cc(C2C(C#N)=C(N)Oc3cc(N)ccc32)cc(Br)c1OC (stereo not given) |  | 33 nM | 67 nM | IC50 [8]: < 500 nM; GI50 [5]: 77 nM; GI50 ([6]; Homo sapiens, NCI-H1299): 76 nM; GI50/EC50 [7]: 2.3 |
| COc1cc(OC)c2c(c1)OC(N)=C(C#N)C2c1cc(OC)c2c(c1)OCO2 (stereo not given) |  |  | > 10000 nM | GI50 [5]: > 10000 nM; EC50 [4]: > 10000 nM; GI50 ([6]; Homo sapiens, NCI-H1299): > 10000 nM; GI50/EC50 [7]: 1 |
| COc1cc(C2C(C#N)=C(N)Oc3cc(O)ccc32)cc2c1OCO2 (stereo not given) |  |  | 5600 nM | GI50 [5]: 6080 nM; EC50 [4]: 5800 nM; GI50 ([6]; Homo sapiens, NCI-H1299): 5500 nM; GI50/EC50 [7]: 1 |
| COc1cc(C2C(C#N)=C(N)Oc3cc(N(C)C)ccc32)cc2c1OCO2 (stereo not given) |  |  | 93 nM | EC50 [4]: 730 nM |
| COc1cc(C2C(C#N)=C(N)Oc3cc(Cl)ccc32)cc(Br)c1OC (stereo not given) |  | 160 nM | 290 nM | GI50 [5]: 64 nM; GI50 ([6]; Homo sapiens, NCI-H1299): 55 nM |
| CCCCNc1ccc2c(c1)OC(N)=C(C#N)C2c1cc(OC)cc(OC)c1 (stereo not given) | 120 nM | 55 nM |  |  |
| COc1cc(C2C(C#N)=C(N)Oc3cc(O)ccc32)cc(Br)c1OC (stereo not given) | 210 nM | 130 nM |  | GI50 [5]: 800 nM; GI50 ([6]; Homo sapiens, NCI-H1299): 190 nM; GI50/EC50 [7]: 6.1 |
| COc1cc(OC)cc(C2C(C#N)=C(N)Oc3cc(OC)ccc32)c1 (stereo not given) | 32 nM | 15 nM |  |  |
| CCNc1ccc2c(c1)OC(N)=C(C#N)C2c1cc(OC)c2c(c1)OCO2 (stereo not given) |  |  | 400 nM | EC50 [4]: 330 nM |
| COc1ccc2c(c1)OC(N)=C(C#N)C2c1cc(OC)c2c(c1)OCO2 (stereo not given) |  |  | 230 nM | GI50 [5]: 260 nM; EC50 [4]: 160 nM; GI50 ([6]; Homo sapiens, NCI-H1299): 240 nM; GI50/EC50 [7]: 1.6 |
| COc1cc(C2C(C#N)=C(N)Oc3cc(N4CCOCC4)ccc32)cc2c1OCO2 (stereo not given) |  |  | > 10000 nM | EC50 [4]: > 10000 nM |
| COc1cc(C2C(C#N)=C(N)Oc3c2ccc(O)c3O)cc(Br)c1OC (stereo not given) | 2500 nM | 1700 nM |  |  |
| COc1ccc2c(c1)OC(N)=C(C#N)C2c1cc(Br)c(OC)c(OC)c1 (stereo not given) |  | 17 nM | 34 nM | GI50 [5]: 8 nM; GI50 ([6]; Homo sapiens, NCI-H1299): 9 nM; GI50/EC50 [7]: 0.47 |

More lines, main results first:

| EC50 [1] | EC50 [2] | EC50 [3] | SMILES | further results |
| --- | --- | --- | --- | --- |
| 58 nM | 24 nM |  | COc1cc(C2C(C#N)=C(N)Oc3c2ccc(N)c3N)cc(Cl)c1OC (stereo not given) |  |
| 160 nM | 80 nM |  | COc1ccc2c(c1)OC(N)=C(C#N)C2c1cccc(Cl)c1 (stereo not given) |  |
| 100 nM | 49 nM |  | COc1cc(C2C(C#N)=C(N)Oc3c2ccc(N)c3N)cc(I)c1OC (stereo not given) |  |
| 89 nM | 52 nM |  | COc1cccc(C2C(C#N)=C(N)Oc3cc(OC)ccc32)c1 (stereo not given) |  |
| 170 nM | 110 nM |  | CCCCNc1ccc2c(c1)OC(N)=C(C#N)C2c1cccc([N+](=O)[O-])c1 (stereo not given) |  |
| 190 nM | 92 nM |  | COc1cc(OC)cc(C2C(C#N)=C(N)Oc3c2ccc(N)c3N)c1 (stereo not given) |  |
| 170 nM | 89 nM |  | COc1ccc2c(c1)OC(N)=C(C#N)C2c1cccc([N+](=O)[O-])c1 (stereo not given) |  |
| 53 nM | 26 nM |  | COc1cc(C2C(C#N)=C(N)Oc3c2ccc(N)c3C)cc(Br)c1OC (stereo not given) |  |
| 62 nM | 23 nM |  | COc1cc(C2C(C#N)=C(N)Oc3c2ccc(N)c3N)cc(Br)c1O (stereo not given) |  |
| 520 nM | 360 nM |  | COc1ccc2c(c1)OC(N)=C(C#N)C2c1ccccc1 (stereo not given) |  |
| 420 nM | 390 nM |  | N#CC1=C(N)Oc2c(ccc(N)c2N)C1c1cccc([N+](=O)[O-])c1 (stereo not given) |  |
| 230 nM | 150 nM |  | N#CC1=C(N)Oc2c(ccc(N)c2N)C1c1cccc(Br)c1 (stereo not given) |  |
| 95 nM | 52 nM |  | COc1ccc2c(c1)OC(N)=C(C#N)C2c1cccc(Br)c1 (stereo not given) |  |
|  | 310 nM | 770 nM | COc1cc(C2C(C#N)=C(N)Oc3c2ccc(N)c3C)cc2c1OCO2 (stereo not given) | GI50 [6]: 860 nM; GI50 ([6]; Homo sapiens, NCI-H1299): 490 nM |
| 460 nM | 390 nM |  | N#CC1=C(N)Oc2c(ccc(N)c2N)C1c1cccc(C#N)c1 (stereo not given) |  |
| 190 nM | 120 nM |  | CCCCNc1ccc2c(c1)OC(N)=C(C#N)C2c1cccc(Cl)c1 (stereo not given) |  |
| 290 nM | 170 nM |  | COc1ccc2c(c1)OC(N)=C(C#N)C2c1cccnc1 (stereo not given) |  |
| 180 nM | 61 nM |  | COc1cc(C2C(C#N)=C(N)Oc3c2ccc(O)c3N)cc(Br)c1OC (stereo not given) | GI50 [5]: 120 nM; GI50 ([6]; Homo sapiens, NCI-H1299): 110 nM; GI50/EC50 [7]: 2 |
